Test system: SW982 cells
Assay: SW982 in vitro viability assay (CellTiter-Glo, 144 hours)
Format: cell-based, human
Experimental: SW982 cells were obtained from ATCC (Catalog No. HTB-93, Manassas, VA, USA) and maintained in DMEM medium (Catalog No. 12430112, ThermoFisher Scientific, Waltham, MA, USA) supplemented with 10% fetal bovine serum (FBS) (Catalog No. 16000-044, Gibco, Grand Island, NY, USA) at 37° C. in an atmosphere of 5% CO2 in air. The cells were routinely sub-cultured to maintain cell density between 3×10^5-1.5×10^6 cells/mL, not to exceed 20 passages. The cells growing in an exponential growth phase were harvested by centrifugation at 1000 rpm and resuspended in fresh growth media. An aliquot was diluted 2× with Trypan Blue solution 0.4% (Catalog No. 15250061, ThermoFisher Scientific, Waltham, MA, USA) and cell count was determined. Cell concentration was adjusted with growth media to 1.0×10^4 cells/mL.
Compound 1 was prepared by dissolving neat compound in DMSO (Catalog No. D8418, Sigma-Aldrich, Inc., St. Louis, MO, USA) to generate 10 mM stock solution and stored at −20° C. 10 mM DMSO stock solution was serially diluted (half log) in DMSO to generate 10-point dose series (10000, 3160, 1000, 316, 100, 31.6, 10, 3.16, 1, 0.32 μM) in acoustic ready 384-well low dead volume microplates (Catalog No. LP-0200, Beckman Coulter Life Sciences, Indianapolis, IN, USA). 50 nL of serially diluted compound solutions were dispensed using the Echo 550 Acoustic Liquid Handler Handler (Beckman Coulter Life Sciences, Indianapolis, IN, USA) in duplicate to each 384-well black TC-treated microplate (Catalog No. 3571, Corning, Glendale, CA, USA). 50 nL DMSO was transferred to all control wells.
50 μL SW982 cells suspended in growth media at 1.0×10^4 cells/mL (500 cells/well) were dispensed using a Multidrop Combi Reagent Dispenser (Catalog No. 5840300, ThermoFisher Scientific, Waltham, MA, USA) to each well of 384-well black TC-treated microplates containing duplicate concentration range of test compounds and DMSO controls. Plates were spun briefly at 1000 rpm and cells were incubated at 37° C., 5% CO2 for 144 hours. Final concentration of DMSO was 0.1% for all samples.
Additional cell plates (TO plates) were prepared by dispensing cells into a blank 384-well black TC-treated microplate to represent cytostatic controls and processed for viability detection immediately after cell dispensing.
SW982 cell viability was determined based on quantification of ATP using CellTiter-Glo® 2.0 luminescent assay kit (Catalog No. G9243, Promega, Madison, WI, USA), which signals the presence of metabolically active cells. On Day 0 (Time 0) and Day 6 (144 hours) 25 μL CellTiter-Glo® reagent was added to each well of cell plates except the wells in column 24 and the luminescence was measured after 4 hours incubation at room temperature using an EnVision® Multilabel Reader (Catalog No. 2104-0010, Perkin Elmer Inc., Dumfries, VA, USA). Column 24 (cells without CellTiter-Glo® addition) was used as plate background or positive control (P). Cytostatic control value (CT0) was computed from TO plate read using untreated cell signals (UT=0) and positive control signals (PT=0) as below.
Percent response of compound-treated samples at a time point T were calculated by normalizing the signal with P and DMSO treated negative (N) controls on the same microtiter plate and the CT0 control:
The Response % is thus 100% if the CellTiter-Glo® signal equals that of the DMSO treated controls (i.e., normal cell growth), 0% if it equals that of untreated cell at TO (i.e., cytostasis), and −100% if it equals the no CellTiter-Glo® reagent controls (i.e., complete cytotoxicity).
Curve fit and GI50 determination was performed by 4 parametric logistic fit analysis using software such as GraphPad Prism software (GraphPad Software, LLC, San Diego, CA, USA). The fit was performed through minimization of the root mean squared error between observed and calculated values of the four-parameter logistic equation using the simplex optimizer of the Apache Commons Math library. […]

## COc1cc(-c2cn(C)c(=O)c(C)c2C)cc(OC)c1CN1CC[C@H](N2CCN(c3ccc(N[C@H]4CCC(=O)NC4=O)cc3F)CC2)C(F)(F)C1 [Compound 1, (S)-3-((4-(4-((S)-1-(2,6-dimethoxy-4-(1,4,5-trimethyl-6-oxo-1,6-dihydropyridin-3-yl)benzyl)-3,3-difluoropiperidin-4-yl)piperazin-1-yl)-3-fluorophenyl)amino)-piperidine-2,6-dione]
Homo sapiens, SW982, 144 h, 0.318 nM, read-out: % SW982 Viability Relative to Vehicle Control at 144 hr, Mean
  viability at 0.000318 µM: 96.2%
Homo sapiens, SW982, 144 h, 1.01 nM, read-out: % SW982 Viability Relative to Vehicle Control at 144 hr, Mean
  viability at 0.00101 µM: 99.6%
Homo sapiens, SW982, 144 h, 3.17 nM, read-out: % SW982 Viability Relative to Vehicle Control at 144 hr, Mean
  viability at 0.00317 µM: 97.2%
Homo sapiens, SW982, 144 h, 10.0 nM, read-out: % SW982 Viability Relative to Vehicle Control at 144 hr, Mean
  viability at 0.01 µM: 101%
Homo sapiens, SW982, 144 h, 31.7 nM, read-out: % SW982 Viability Relative to Vehicle Control at 144 hr, Mean
  viability at 0.0317 µM: 95.7%
Homo sapiens, SW982, 144 h, 100 nM, read-out: % SW982 Viability Relative to Vehicle Control at 144 hr, Mean
  viability at 0.1 µM: 96.4%
Homo sapiens, SW982, 144 h, 317 nM, read-out: % SW982 Viability Relative to Vehicle Control at 144 hr, Mean
  viability at 0.317 µM: 91.9%
Homo sapiens, SW982, 144 h, 1000 nM, read-out: % SW982 Viability Relative to Vehicle Control at 144 hr, Mean
  viability at 1 µM: 88.6%
Homo sapiens, SW982, 144 h, 3161 nM, read-out: % SW982 Viability Relative to Vehicle Control at 144 hr, Mean
  viability at 3.161 µM: 85.7%
Homo sapiens, SW982, 144 h, 9990 nM, read-out: % SW982 Viability Relative to Vehicle Control at 144 hr, Mean
  viability at 9.99 µM: 84.2%
Homo sapiens, SW982 cells, 144-hour treatment, read-out: Geometric Mean GI50
  GI50: > 10 µM
Homo sapiens, SW982 cells, 144-hour treatment, read-out: Mean Emax (%) ± SD
  Emax: 84.2 ± 4.6%
SW982 cells, 144-hour treatment
  growth inhibition at the highest concentration tested: < 20%

From US20240245677A1, “SELECTED COMPOUNDS FOR TARGETED DEGRADATION OF BRD9” (C4 THERAPEUTICS, INC., priority 2021, published 2024)
